Reference: patent US7772188B2, “Methods and compositions for the treatment of gastrointestinal disorders” (priority 2003, dated 2010)
Positions of bridges follow the written chain, without caps; N, C: chain ends. Residues, ends and D or L forms follow the SMILES beside them.

Key:
intestinal GC-C receptor = molecular target: T1, intestinal GC-C receptor (Homo sapiens, UniProt P25092); test: Intestinal GC-C receptor activity assay (cyclic GMP by EIA in T84 cells); type: cell-based; details: chemically synthesized peptides, FIG. 2
T1 construct: host or cells: T84 human colon carcinoma cells
T1 sequence (P25092 24-1073): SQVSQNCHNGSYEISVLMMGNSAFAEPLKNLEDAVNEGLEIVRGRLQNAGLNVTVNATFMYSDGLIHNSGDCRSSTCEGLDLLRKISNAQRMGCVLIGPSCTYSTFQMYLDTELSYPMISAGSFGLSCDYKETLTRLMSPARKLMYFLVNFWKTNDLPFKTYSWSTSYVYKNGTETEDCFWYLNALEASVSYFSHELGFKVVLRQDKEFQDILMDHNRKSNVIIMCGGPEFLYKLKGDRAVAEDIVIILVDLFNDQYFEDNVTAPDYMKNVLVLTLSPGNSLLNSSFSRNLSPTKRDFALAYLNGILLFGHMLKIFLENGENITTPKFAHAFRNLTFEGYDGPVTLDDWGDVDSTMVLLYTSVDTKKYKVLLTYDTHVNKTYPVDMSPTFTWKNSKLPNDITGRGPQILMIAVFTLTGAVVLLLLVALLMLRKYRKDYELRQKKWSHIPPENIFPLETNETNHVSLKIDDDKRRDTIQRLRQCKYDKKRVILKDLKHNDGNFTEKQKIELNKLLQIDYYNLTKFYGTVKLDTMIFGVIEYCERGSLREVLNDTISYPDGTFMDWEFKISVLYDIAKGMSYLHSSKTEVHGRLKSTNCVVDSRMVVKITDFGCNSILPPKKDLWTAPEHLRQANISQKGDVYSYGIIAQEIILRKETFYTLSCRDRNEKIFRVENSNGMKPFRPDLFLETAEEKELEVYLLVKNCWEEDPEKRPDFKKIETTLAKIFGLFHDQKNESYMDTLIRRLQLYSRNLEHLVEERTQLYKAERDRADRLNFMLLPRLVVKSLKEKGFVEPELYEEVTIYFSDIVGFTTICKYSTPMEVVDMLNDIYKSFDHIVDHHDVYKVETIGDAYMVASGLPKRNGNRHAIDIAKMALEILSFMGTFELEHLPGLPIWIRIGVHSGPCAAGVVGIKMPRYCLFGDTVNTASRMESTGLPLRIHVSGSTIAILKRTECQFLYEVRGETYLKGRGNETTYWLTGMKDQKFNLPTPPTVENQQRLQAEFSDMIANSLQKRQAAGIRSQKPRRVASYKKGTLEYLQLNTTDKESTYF
Procedure: The ability of SEQ ID NO:5, SEQ ID NO:4, and SEQ ID NO:3 to activate the intestinal GC-C receptor was assessed in an assay employing the T84 human colon carcinoma cell line (American Type Culture Collection (Bethesda, Md.)). For the assays cells were grown to confluency in 24-well culture plates with a 1:1 mixture of Ham's F12 medium and Dulbecco's modified Eagle's medium (DMEM), supplemented with 5% fetal calf serum and were used at between passages 54 and 60.
Briefly, monolayers of T84 cells in 24-well plates were washed twice with 1 ml/well DMEM, then incubated at 37° C. for 10 min with 0.45 ml DMEM containing 1 mM isobutylmethylxanthine (IBMX), a cyclic nucleotide phosphodiesterase inhibitor. Test peptides (50 μl) were then added and incubated for 30 minutes at 37° C. The media was aspirated and the reaction was then terminated by the addition of ice cold 0.5 ml of 0.1N HCl. The samples were held on ice for 20 minutes and then evaporated to dryness using a heat gun or vacuum centrifugation. The dried samples were resuspended in 0.5 ml of phosphate buffer provided in the Cayman Chemical Cyclic GMP EIA kit (Cayman Chemical, Ann Arbor, Mich.). Cyclic GMP was measured by EIA according to procedures outlined in the Cayman Chemical Cyclic GMP EIA kit.

intestinal secretion = test: Suckling mouse model of intestinal secretion (SuMi assay); type: in vivo; details: suckling mice; dose response; FIG. 5a/5b
Procedure: In this model a test compound is administered to suckling mice that are between 7 and 9 days old. After the mice are sacrificed, the gastrointestinal tract from the stomach to the cecum is dissected (“guts”). The remains (“carcass”) as well as the guts are weighed and the ratio of guts to carcass weight is calculated. If the ratio is above 0.09, one can conclude that the test compound increases intestinal secretion. […] The effect of Zelnorm® was also studied.

[1] = tested on: abdominal response to colorectal distension; test: Trinitrobenzenesulphonic acid (TNBS)-induced rectal allodynia model, colorectal distension; type: in vivo, Wistar rats; details: rats, FIG. 7
Procedure: Male Wistar rats (220-250 g) were premedicated with 0.5 mg/kg of acepromazine injected intraperitoneally (IP) and anesthetized by intramuscular administration of 100 mg/kg of ketamine. Pairs of nichrome wire electrodes (60 cm in length and 80 μm in diameter) were implanted in the striated muscle of the abdomen, 2 cm laterally from the white line. The free ends of electrodes were exteriorized on the back of the neck and protected by a plastic tube attached to the skin. Electromyographic (EMG) recordings were started 5 days after surgery. Electrical activity of abdominal striated muscle was recorded with an electroencephalograph machine (Mini VIII, Alvar, Paris, France) using a short time constant (0.03 sec.) to remove low-frequency signals (<3 Hz).
Ten days post surgical implantation, trinitrobenzenesulphonic acid (TNBS) was administered to induce rectal inflammation. TNBS (80 mg kg^−1 in 0.3 ml 50% ethanol) was administered intrarectally through a silicone rubber catheter introduced at 3 cm from the anus under light diethyl-ether anesthesia, as described (Morteau et al. 1994 Dig Dis Sci 39:1239). […] Evaluation of rectal sensitivity, as measured by EMG, was performed before (1-2 days) and 3 days following rectal instillation of TNBS.
The number of spike bursts that corresponds to abdominal contractions was determined per 5 min periods. […]

[2] = molecular target: T2, GC-C receptors found in rat intestinal mucosa (Rattus norvegicus, UniProt P23897); test: biochemical
T2 sequence (P23897 23-1072): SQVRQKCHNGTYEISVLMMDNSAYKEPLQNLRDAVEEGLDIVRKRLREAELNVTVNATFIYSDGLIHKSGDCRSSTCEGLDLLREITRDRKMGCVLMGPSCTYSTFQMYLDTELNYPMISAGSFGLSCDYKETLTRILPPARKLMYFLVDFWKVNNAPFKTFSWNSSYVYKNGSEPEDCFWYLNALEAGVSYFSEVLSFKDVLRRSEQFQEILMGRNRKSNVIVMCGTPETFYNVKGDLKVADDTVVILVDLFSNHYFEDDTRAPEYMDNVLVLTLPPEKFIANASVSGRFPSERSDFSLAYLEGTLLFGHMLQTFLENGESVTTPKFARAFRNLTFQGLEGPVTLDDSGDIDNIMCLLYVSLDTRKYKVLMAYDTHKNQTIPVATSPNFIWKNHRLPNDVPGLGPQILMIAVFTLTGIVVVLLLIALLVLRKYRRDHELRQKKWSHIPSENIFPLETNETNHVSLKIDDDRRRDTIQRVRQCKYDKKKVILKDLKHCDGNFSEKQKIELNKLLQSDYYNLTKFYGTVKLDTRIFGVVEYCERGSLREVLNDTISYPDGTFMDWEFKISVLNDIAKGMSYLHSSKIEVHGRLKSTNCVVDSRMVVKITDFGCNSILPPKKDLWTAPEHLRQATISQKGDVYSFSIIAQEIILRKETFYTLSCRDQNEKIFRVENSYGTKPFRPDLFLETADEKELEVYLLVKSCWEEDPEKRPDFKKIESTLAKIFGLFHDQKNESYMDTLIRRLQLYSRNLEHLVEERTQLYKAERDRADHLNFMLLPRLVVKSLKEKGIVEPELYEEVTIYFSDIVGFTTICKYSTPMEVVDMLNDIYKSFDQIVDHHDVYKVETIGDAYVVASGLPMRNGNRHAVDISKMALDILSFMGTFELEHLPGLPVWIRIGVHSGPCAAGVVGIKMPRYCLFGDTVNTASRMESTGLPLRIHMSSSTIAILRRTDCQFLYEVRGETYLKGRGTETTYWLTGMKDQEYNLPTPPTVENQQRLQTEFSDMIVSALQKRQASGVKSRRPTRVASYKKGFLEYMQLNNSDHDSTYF
Procedure: To determine the affinity of SEQ ID NO:3 for GC-C receptors found in rat intestinal mucosa, a competition binding assay was performed using rate intestinal epithelial cells. Epithelial cells from the small intestine of rats were obtained as described by Kessler et al. (J. Biol. Chem. 245: 5281-5288 (1970)). Briefly, animals were sacrificed and their abdominal cavities exposed. The small intestine was rinsed with 300 ml ice cold saline or PBS. 10 cm of the small intestine measured at 10 cm from the pylorus was removed and cut into 1 inch segments. Intestinal mucosa was extruded from the intestine by gentle pressure between a piece of parafilm and a P-1000 pipette tip. Intestinal epithelial cells were placed in 2 ml PBS and pipetted up and down with a 5 ml pipette to make a suspension of cells.
A competition binding assay was performed based on the method of Giannella et al. (Am. J. Physiol. 245: G492-G498) between [^125I] labeled SEQ ID NO:4 and SEQ ID NO:3. The assay mixture contained: 0.5 ml of DME with 20 mM HEPES-KOH pH 7.0, 0.9 mg of the cell suspension listed above, 21.4 fmol [^125I]-SEQ ID NO:4 (42.8 pM), and different concentrations of competitor SEQ ID NO:3 (0.01 to 1000 nM). […] The filters were washed with 5 ml ice-cold PBS and radioactivity was measured.

C[C@@H]1NC(=O)[C@@H]2CCCN2C(=O)[C@H](CC(N)=O)NC(=O)[C@@H]2CSSC[C@H](N)C(=O)N[C@H]3CSSC[C@H](NC1=O)C(=O)N[C@@H]([C@@H](C)O)C(=O)NCC(=O)N[C@H](C(=O)N[C@@H](Cc1ccc(O)cc1)C(=O)O)CSSC[C@H](NC(=O)[C@H](Cc1ccc(O)cc1)NC(=O)[C@H](CCC(=O)O)NC3=O)C(=O)N2 [SEQ ID NO:3, Cys Cys Glu Tyr Cys Cys Asn Pro Ala Cys Thr Gly Cys Tyr] (H-CCEYCCNPACTGCY-OH; disulfide 1-6, 2-10, 5-13; N-terminus and C-terminus assumed)
activity in GC-C receptor activity assay (intestinal GC-C receptor): activity comparable to SEQ ID NO:4
intestinal secretion (guts to carcass weight ratio) (intestinal secretion): increase intestinal secretion
abdominal response (abdominal contractions, EMG) ([1]; 0.3 μg/kg): Significant decreases in abdominal response
abdominal response (abdominal contractions, EMG) ([1]; 3 μg/kg): Significant decreases in abdominal response
Kd [2]: 4.5 nM
